In patent US20260109732A1, “LIPID AMINES” (ModernaTX, Inc., priority 2021, published 2026):
Structures can show the parent of a compound that is named as a salt.

Experiments:
HeLa cells [1] = assay: CFTR Protein Expression Assay in HeLa Cells; type: cell-based, Human; settings: LNPs encapsulating CFTR mRNA, N=4 wells; 5 h serum-free then 24 h; immunofluorescence vs PBS control
Outline: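 Readout is fold-change in per-cell CFTR immunofluorescence intensity (488 nm, confocal imaging) relative to PBS-treated cells, from 4 replicate wells. LNPs encapsulating CFTR mRNA were applied serum-free for 5 h, followed by 24 h in complete medium before PFA fixation.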

HeLa cells [2] = assay: Luciferase Protein Expression Assay in HeLa Cells; type: cell-based, Human; settings: LNPs encapsulating Luciferase mRNA, 25 ng per well, N=4 wells; 5 h serum-free then 24 h; ONE-Glo
Outline: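 Luminescence output, average RLU across N=4 wells, was measured with ONE-Glo after cell lysis. Before that, HeLa cells were exposed to 25 ng/well luciferase-mRNA nanoparticles (PBS control) for 5 h serum-free, then cultured overnight (24 h) in complete MEM.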

[3] = Diameter and PDI from DLS measurements of mRNA nanoparticles with lipid amines; type: physicochemical
Outline: (§1)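 DLS gave size and PDI, and Ribogreen gave encapsulation, for luciferase- or CFTR-mRNA nanoparticles (N:P 4.93). Particles came from IL1/DSPC/cholesterol/PEG-DMG-2K mixed at pH 4, mRNA-loaded, neutralized with TRIS pH 8.12, and then treated with lipid amine SA50 in pH 7.5 buffer.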

[4] = Encapsulation of mRNA nanoparticles with lipid amines using Ribogreen assay; type: physicochemical
Outline: as §1

[5] = CFTR mRNA nanoparticle with lipid amine
[6] = Luciferase mRNA nanoparticle modified with lipid amine

Structure (SMILES)	Average fold-change in CFTR signal intensity per cell compared to buffer control ± standard deviation (HeLa cells [1])	Average Relative Light Units ± Standard Deviation (HeLa cells [2])	Diameter (nm) [3, 5]	PDI [3, 5]	Diameter (nm) [3, 6]	PDI [3, 6]	% Encapsulation (Ribogreen) [4, 5]	% Encapsulation (Ribogreen) [4, 6]
CC(C)CCC[C@@H](C)[C@H]1CC[C@H]2[C@@H]3CC=C4C[C@@H](SSCCC(=O)N(CCCC(C)(C)N)CCC(C)(C)N)CC[C@]4(C)[C@H]3CC[C@]12C [SA145, N-(3-amino-3-methylbutyl)-N-(4-amino-4-methylpentyl)-3-(((3S,8S,9S,10R,13R,14S,17R)-10,13-dimethyl-17-((R)-6-methylheptan-2-yl)-2,3,4,7,8,9,10,11,12,13,14,15,16,17-tetradecahydro-1H-cyclopenta[a]phenanthren-3-yl)disulfaneyl)propanamide dihydrochloride]	14.4 ± 0.6 fold-change	36033.7 ± 4254.5 Relative Light Units	71.8 nm	0.14	77 nm	0.17	99.8%	99.7%
CC(C)CCC[C@@H](C)[C@H]1CC[C@H]2[C@@H]3CC=C4C[C@@H](OC(=O)N(CCCCCCCC(C)(C)N)CCC(C)(C)N)CC[C@]4(C)[C@H]3CC[C@]12C [SA152, (3S,8S,9S,10R,13R,14S,17R)-10,13-dimethyl-17-((R)-6-methylheptan-2-yl)-2,3,4,7,8,9,10,11,12,13,14,15,16,17-tetradecahydro-1H-cyclopenta[a]phenanthren-3-yl (3-amino-3-methylbutyl)(8-amino-8-methylnonyl)carbamate dihydrochloride]	20.6 ± 1.6 fold-change	41692.8 ± 9336.8 Relative Light Units	71.6 nm	0.14	78 nm	0.15	98.4%	98.2%
